Results taken from paper PMC11620482, “Phase 1 drug-drug interaction study to assess the effect of CYP3A4 inhibition and pan-CYP induction on the pharmacokinetics and safety of fosmanogepix in healthy participants” (Antimicrobial Agents and Chemotherapy, 2024).
Where two headings read alike, the source gives them in different places.

What was measured:
[1] = test system: recombinant human CYP (rCYP) enzymes; conditions: cited from earlier work
CYP2D6 = conditions: cited from earlier work
CYP2A6 = conditions: cited from earlier work
CYP2C8 = conditions: cited from earlier work
CYP1A2 = conditions: cited from earlier work
CYP2C19 = conditions: cited from earlier work
CYP2E1 = conditions: cited from earlier work
[2] = test system: phosphatidylinositol glycan anchor biosynthesis class W (PIGW); parameters: method as in PMID 33105672, PMID 34626339; conditions: cited from earlier work
CYP2C9 = conditions: cited from earlier work
[3] = mice infected with C. albicans and C. glabrata; cited from earlier work
CYP2B6 = conditions: cited from earlier work
human CYPs = conditions: cited from earlier work
[4] = Plasma pharmacokinetics of MGX and FMGX (noncompartmental analysis), phase 1 fixed-sequence DDI study with itraconazole or rifampin; assay type: in vivo, human; conditions: for Vd: read-out: MGX Vz; for Tmax: median (range)
Protocol: In cohort 1, MGX plasma samples were collected at specified time points daily on days 1–4, once every 2 days on days 6–14, daily for 3 days from days 18 to 20, once every 2 days from days 21 to 29, and then on day 31, while itraconazole samples were collected at specified time points on days 19, 25, and 31. […] PK parameters were calculated using noncompartmental analysis from the plasma concentration-time data for MGX and FMGX. Primary PK parameters were maximum observed plasma concentration (Cmax), AUC from time 0 to infinity (AUC0-inf), and AUC up to time t (AUC0-t, where t was the last time point with concentrations above the lower limit of quantitation). […] Secondary PK parameters were time to attain Cmax (Tmax), AUC from time 0 to 23 hours (AUC0-23), terminal elimination half-life after the last dosing on the day (t1/2), clearance (CL), volume of distribution at terminal phase (Vz), and terminal phase rate constant after the last dosing on the day (λz).

CYP3A4 = conditions: cited from earlier work

## Nc1ncccc1-c1cc(Cc2ccc(COc3ccccn3)cc2)no1 [MGX, manogepix]
[1]
  Enzymes involved in formation of MGX-derived metabolites: multiple recombinant human CYP (rCYP) enzymes were involved
CYP2D6
  Reversible inhibition of CYP2D6: observed
  Time-dependent inhibition of CYP2D6: no time-dependent inhibition
CYP2A6
  Time-dependent inhibition of CYP2A6: no time-dependent inhibition
CYP2C8
  Reversible inhibition of CYP2C8: observed
  Time-dependent inhibition of CYP2C8: no time-dependent inhibition
CYP1A2
  Reversible inhibition of CYP1A2: observed
  Time-dependent inhibition of CYP1A2: no time-dependent inhibition
CYP2C19
  Reversible inhibition of CYP2C19: observed
  Time-dependent inhibition of CYP2C19: no time-dependent inhibition
CYP2E1
  Time-dependent inhibition of CYP2E1: no time-dependent inhibition
[2]
  Inhibition of PIGW, closest mammalian ortholog of GWT1: not inhibited
CYP2C9
  Reversible inhibition of CYP2C9: observed
  Time-dependent inhibition of CYP2C9: no time-dependent inhibition
[3]
  Exposure (AUC) and half-life of MGX after pre-administration of 1-aminobenzotriazole: increase
CYP2B6
  Reversible inhibition of CYP2B6: observed
  Time-dependent inhibition of CYP2B6: weak time-dependent inhibition
Human CYPs
  Reversible inhibition, other CYP isoforms: Weak or no inhibition
[4]; FMGX only 1000 mg BID IV, D1, Cohort 2, n = 17, geometric mean (geometric %CV)
  MGX Vz: 190 (40.8) L
[4]; human, in vivo, FMGX 500 mg BID IV D18 + ITR 200 mg QD PO D15-30, Cohort 1, n = 16, geometric mean (geometric %CV), read-out: MGX AUC(0-inf)
  AUC(0-inf): 458 µg·h/mL
[4]; human, in vivo, FMGX 500 mg BID IV D18 + ITR 200 mg QD PO D15-30, Cohort 1, n = 16, geometric mean (geometric %CV), read-out: MGX AUC(0-t)
  AUC(0-t): 421 µg·h/mL
[4]; human, in vivo, FMGX 500 mg BID IV D18 + ITR 200 mg QD PO D15-30, Cohort 1, n = 16, geometric mean (geometric %CV), read-out: MGX Cmax
  Cmax: 7060 ng/mL
[4]; human, in vivo, FMGX 500 mg BID IV D18 + ITR 200 mg QD PO D15-30, Cohort 1, n = 16, geometric mean (geometric %CV)
  Vd: 195 L
[4]; human, in vivo, FMGX 500 mg BID IV D18 + ITR 200 mg QD PO D15–30, Cohort 1, n = 16, read-out: MGX AUC(0-inf), least squares geometric mean
  AUC(0-inf): 458 µg·h/mL
[4]; human, in vivo, FMGX 500 mg BID IV D18 + ITR 200 mg QD PO D15–30, Cohort 1, n = 16, read-out: MGX AUC(0-t), least squares geometric mean
  AUC(0-t): 421 µg·h/mL
[4]; human, in vivo, FMGX 500 mg BID IV D18 + ITR 200 mg QD PO D15–30, Cohort 1, n = 16, read-out: MGX Cmax, least squares geometric mean
  Cmax: 7060 ng/mL
[4]; human, in vivo, FMGX 1,000 mg BID IV D24 + RIF 600 mg QD PO D15–33, Cohort 2, n = 17, geometric mean (geometric %CV), read-out: MGX AUC(0-inf)
  AUC(0-inf): 450 µg·h/mL
[4]; human, in vivo, FMGX 1,000 mg BID IV D24 + RIF 600 mg QD PO D15–33, Cohort 2, n = 17, geometric mean (geometric %CV), read-out: MGX AUC(0-t)
  AUC(0-t): 436 µg·h/mL
[4]; human, in vivo, FMGX 1,000 mg BID IV D24 + RIF 600 mg QD PO D15–33, Cohort 2, n = 17, geometric mean (geometric %CV), read-out: MGX Cmax
  Cmax: 12100 ng/mL
[4]; human, in vivo, FMGX 1,000 mg BID IV D24 + RIF 600 mg QD PO D15–33, Cohort 2, n = 17, geometric mean (geometric %CV)
  Vd: 205 L
[4]; human, in vivo, FMGX 1,000 mg BID IV D24 + RIF 600 mg QD PO D15–33, Cohort 2, n = 17, read-out: MGX AUC(0-inf), least squares geometric mean
  AUC(0-inf): 450 µg·h/mL
[4]; human, in vivo, FMGX 1,000 mg BID IV D24 + RIF 600 mg QD PO D15–33, Cohort 2, n = 17, read-out: MGX AUC(0-t), least squares geometric mean
  AUC(0-t): 436 µg·h/mL
[4]; human, in vivo, FMGX 1,000 mg BID IV D24 + RIF 600 mg QD PO D15–33, Cohort 2, n = 17, read-out: MGX Cmax, least squares geometric mean
  Cmax: 12100 ng/mL
[4]; human, in vivo, Terminal elimination half-life for MGX
  half-life: ~78 h
[4]; human, in vivo, iv, 500 mg, FMGX only 500 mg BID IV, D1, Cohort 1, n = 16, geometric mean (geometric %CV), read-out: MGX AUC(0-inf)
  AUC(0-inf): 460 µg·h/mL
[4]; human, in vivo, iv, 500 mg, FMGX only 500 mg BID IV, D1, Cohort 1, n = 16, geometric mean (geometric %CV), read-out: MGX AUC(0-t)
  AUC(0-t): 429 µg·h/mL
[4]; human, in vivo, iv, 500 mg, FMGX only 500 mg BID IV, D1, Cohort 1, n = 16, geometric mean (geometric %CV), read-out: MGX Cmax
  Cmax: 6940 ng/mL
[4]; human, in vivo, iv, 500 mg, FMGX only 500 mg BID IV, D1, Cohort 1, n = 16, geometric mean (geometric %CV)
  Vd: 185 L
[4]; human, in vivo, iv, 500 mg, FMGX only 500 mg BID IV, D1, Cohort 1, n = 16, read-out: MGX AUC(0-inf), least squares geometric mean
  AUC(0-inf): 460 µg·h/mL
[4]; human, in vivo, iv, 500 mg, FMGX only 500 mg BID IV, D1, Cohort 1, n = 16, read-out: MGX AUC(0-t), least squares geometric mean
  AUC(0-t): 429 µg·h/mL
[4]; human, in vivo, iv, 500 mg, FMGX only 500 mg BID IV, D1, Cohort 1, n = 16, read-out: MGX Cmax, least squares geometric mean
  Cmax: 6940 ng/mL
[4]; human, in vivo, iv, 500 mg, MGX CL
  clearance: 27.7 mL/min
[4]; human, in vivo, iv, 500 mg, MGX t1/2
  half-life: 77.3 h
[4]; human, in vivo, iv, 1000 mg
  MGX CL: 1,862 (18.5) mL/h
[4]; human, in vivo, iv, 1000 mg, FMGX only 1000 mg BID IV, D1, Cohort 2, n = 17, geometric mean (geometric %CV), read-out: MGX AUC(0-inf)
  AUC(0-inf): 822 µg·h/mL
[4]; human, in vivo, iv, 1000 mg, FMGX only 1000 mg BID IV, D1, Cohort 2, n = 17, geometric mean (geometric %CV), read-out: MGX AUC(0-t)
  AUC(0-t): 772 µg·h/mL
[4]; human, in vivo, iv, 1000 mg, FMGX only 1000 mg BID IV, D1, Cohort 2, n = 17, geometric mean (geometric %CV), read-out: MGX Cmax
  Cmax: 13900 ng/mL
[4]; human, in vivo, iv, 1000 mg, FMGX only 1,000 mg BID IV, D1, Cohort 2, n = 17, read-out: MGX AUC(0-inf), least squares geometric mean
  AUC(0-inf): 822 µg·h/mL
[4]; human, in vivo, iv, 1000 mg, FMGX only 1,000 mg BID IV, D1, Cohort 2, n = 17, read-out: MGX AUC(0-t), least squares geometric mean
  AUC(0-t): 772 µg·h/mL
[4]; human, in vivo, iv, 1000 mg, FMGX only 1,000 mg BID IV, D1, Cohort 2, n = 17, read-out: MGX Cmax, least squares geometric mean
  Cmax: 13900 ng/mL
[4]; human, in vivo, iv, 1000 mg, MGX t1/2
  half-life: 70.7 h
[4]; human, in vivo, FMGX 500 mg BID IV D18 + ITR 200 mg QD PO D15-30, Cohort 1, n = 16
  Tmax: 12 h
[4]; human, in vivo, FMGX only 500 mg BID IV, D1, Cohort 1, n = 16
  Tmax: 12 h
[4]; human, in vivo, FMGX only 1000 mg BID IV, D1, Cohort 2, n = 17
  Tmax: 12 h
CYP3A4
  Reversible inhibition of CYP3A4: observed
  Time-dependent inhibition of CYP3A4: weak time-dependent inhibition
